Experimental data as given in patent publication US20260265304A1, “PEPTIDE INHIBITORS OF FOCAL ADHESION KINASE ACTIVITY AND USES THEREOF” (Arizona Board of Regents on Behalf of the University of …, priority 2019, published 2026).

Assays:
[1] = biological target: T1, FAK FAT domain (biotinylated Avitag-FAT protein) (Homo sapiens, UniProt Q05397); assay: Surface plasmon resonance (SPR) binding to immobilised FAT protein; conditions: FAT protein immobilised, peptide 200 μM-0.01 μM, 1:1 binding model; read-out: SPR KD
T1 construct: biotinylated Avitag-FAT protein was diluted in running buffer
T1 sequence (Q05397 914-1045 limits assumed): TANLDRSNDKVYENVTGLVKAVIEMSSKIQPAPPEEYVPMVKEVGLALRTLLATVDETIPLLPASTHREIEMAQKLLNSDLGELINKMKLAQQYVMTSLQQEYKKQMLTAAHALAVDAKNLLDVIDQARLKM

[2] = test system: SK-MEL-103 melanoma cells; assay: 3D Matrigel-on-top proliferation assay; format: cell-based; conditions: for IC50: SK-MEL-103 melanoma cells, 3D Matrigel-on-top
Procedure: (§1) B. Competition FP experiment with 1907 showing inhibition of TAMRA-LD2 binding to FAT. C. SPR binding and selectivity analysis using WT FAT and Mutant FAT (L994E, 1936A) at the helix-protein interface. D. Flow cytometry analysis of Rhodamine-1907 (10 μM) cellular uptake in MDA-MB-453 breast cancer cells. E. Boyden-chamber invasion assays in SK-MEL-103 melanoma cells. F. 3D Matrigel-on-top proliferation assays in SK-MEL-103 melanoma cells.
(§2) B. 3D structure of negative control molecule (UACC-2020). C. 3D Matrigel-on-top cell proliferation data of stapled peptides in SK-MEL-103 melanoma cells.
(§3) A negative control myristoylated peptide (2020) was designed and synthesized based on non-active molecule 2014. Experiments were conducted to test the efficacy of these peptides in 3D proliferation assays using SK-MEL-103 melanoma cells. […] Furthermore, 2012 had no effects on the proliferation of normal HUVEC cells (IC50=NA) (FIG. 7).

HUVEC cells = assay: 3D Matrigel-on-top proliferation assay in normal cells; format: cell-based
Procedure: as §2, §3

trypsin = biological target: T2, trypsin (Bos taurus, UniProt P00760); assay: In vitro trypsin digest assay (trypsin-agarose beads, LC-MS); format: in vitro ADME; conditions: trypsin-agarose beads in physiological buffer, read-out: t1/2 in trypsin digest (protease resistance) (converted)
T2 construct: purchased ThermoFisher
T2 sequence (P00760 24-246): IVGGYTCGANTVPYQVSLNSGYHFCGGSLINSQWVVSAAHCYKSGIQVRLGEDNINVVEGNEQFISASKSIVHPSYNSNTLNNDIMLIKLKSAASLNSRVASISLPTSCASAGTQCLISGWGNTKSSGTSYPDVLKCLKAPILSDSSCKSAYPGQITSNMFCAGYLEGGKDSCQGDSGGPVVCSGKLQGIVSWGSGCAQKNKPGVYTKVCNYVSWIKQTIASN
Procedure: Assays were performed using trypsin-agarose beads (ThermoFisher) and measurement of peptide concentration using LC-MS. Peptide half-lives were calculated using GraphPad Prism software.
Trypsin-agarose beads were used to test the potential cleavage of peptides in a physiological buffer and LC-MS was used as the analytical method to determine peptide concentration.

[3] = test system: LX2 human liver stellate cells; assay: Anti-fibrotic activity in TGF-β-induced stellate cells (Western blot, morphology); format: cell-based
Procedure: A. Western blot studies of LX2 cells treated with 2 ng/ml TGF-β for 17 h to induce pro-fibrotic phenotypes. […] Quantification of fibronectin results are shown in the lower panel. B. Morphological changes of LX2 cells after TGF-β and peptide treatment for 17 h. Images were captured using bright field microscopy.
Experiments were conducted to test the anti-fibrotic effects of stapled peptides targeting the FAK FAT domain (FIG. 13). TGF-β induction was performed in LX-2 human liver stellate cells to promote a pro-fibrotic phenotypic and differentiation to myofibroblast-like cells.

[4] = test system: SK-MEL-103 melanoma cells; assay: Boyden-chamber invasion assay; format: cell-based; conditions: SK-MEL-103, compared to Defactinib relative to compound KD
Procedure: as §1
To further evaluate the activity of 1907, experiments were conducted that tested the peptide in a flow cytometry-based cell permeability assay. […] Experiments were also conducted to test the cellular efficacy in SK-MEL-103 melanoma cells.

Compound	Kd [1]	IC50 [2]	3D proliferation IC50 (HUVEC cells)	half-life (trypsin)	TGF-β-induced expression of fibronectin ([3]; LX2 cells, 2 ng/ml TGF-β 17 h, peptide 10, 5, 2 μM pretreated 1 h)	morphological change of TGF-β-induced cells ([3]; LX-2 cells, TGF-β and peptide treatment 17 h, bright field microscopy)	inhibition of 3D proliferation ([2]; SK-MEL-103, compared to Defactinib relative to compound KD)	inhibition of invasion [4]
CCCCCCCCCCCCCC(=O)N[C@@H](CC(N)=O)C(=O)N[C@@H](CC(C)C)C(=O)N[C@]1(C)CCCCCCC=CCCC[C@@](C)(C(=O)N[C@@H](CCC(=O)O)C(=O)N[C@@H](CC(C)C)C(=O)N[C@@H](CC(N)=O)C(N)=O)NC(=O)[C@H](CC(C)C)NC(=O)[C@H](CC(C)C)NC(=O)[C@H](CCCNC(=N)N)NC(=O)[C@H](CC(=O)O)NC(=O)[C@H](CC(C)C)NC(=O)[C@H](CCC(=O)O)NC1=O [Peptide 2012, Myristoyl-NLR8ELDRLLS5ELN-NH2]	> 200 µM	5.5 µM	no effects	> 48 h	reduced the TGF-β-induced expression of fibronectin, a marker of fibrosis, in a dose-dependent manner	induced a morphological change	–	–
CC(=O)N[C@@H](CC(N)=O)C(=O)N[C@@H](CC(C)C)C(=O)N[C@]1(C)CCCCCC/C=C/CCC[C@@](C)(C(=O)N[C@@H](CCC(=O)O)C(=O)N[C@@H](CC(C)C)C(=O)N[C@@H](CC(N)=O)C(N)=O)NC(=O)[C@H](CC(C)C)NC(=O)[C@H](CC(C)C)NC(=O)[C@H](CCCNC(=N)N)NC(=O)[C@H](CC(=O)O)NC(=O)[C@H](CC(C)C)NC(=O)[C@H](CCC(=O)O)NC1=O [Peptide 1907, Ac-NLR8ELDRLLS5ELN-NH2]	–	60 µM	–	15.7 h	–	–	effectively inhibited	effectively inhibited
